# According to PubChem BioAssay (NCI):
#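 All cell lines were grown in 96-well plates and treated with compound for 48 hours. TGI denotes the concentration required for complete inhibition of growth.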
# Tests used:
# Assay in all cases: inhibition of tumour cell growth, NCI panel, 48 h
# XF 498 CNS = test system: XF 498 CNS
# DLD-1 colon = test system: DLD-1 colon
# SF-268 CNS = test system: SF-268 CNS
# KM20L2 colon = test system: KM20L2 colon
# DMS 114 small cell lung = test system: DMS 114 small cell lung
# HOP-18 NSCLC = test system: HOP-18 NSCLC
# DMS 273 small cell lung = test system: DMS 273 small cell lung
# LXFL 529 NSCLC = test system: LXFL 529 NSCLC
# UACC-257 melanoma = test system: UACC-257 melanoma
# M19-MEL melanoma = test system: M19-MEL melanoma
# SNB-78 CNS = test system: SNB-78 CNS
# HOP-62 NSCLC = test system: HOP-62 NSCLC
# HCT-15 colon = test system: HCT-15 colon
# MCF7 breast = test system: MCF7 breast
# BT-549 breast = test system: BT-549 breast
# MDA-N = test system: MDA-N
# T-47D breast = test system: T-47D breast
SMILES,TGI (XF 498 CNS) [µM],TGI (DLD-1 colon) [µM],TGI (SF-268 CNS) [µM],TGI (KM20L2 colon) [µM],TGI (DMS 114 small cell lung) [µM],TGI (HOP-18 NSCLC) [µM],TGI (DMS 273 small cell lung) [µM],TGI (LXFL 529 NSCLC) [µM],TGI (UACC-257 melanoma) [µM],TGI (M19-MEL melanoma) [µM],TGI (SNB-78 CNS) [µM],TGI (HOP-62 NSCLC) [µM],TGI (HCT-15 colon) [µM],TGI (MCF7 breast) [µM],TGI (BT-549 breast) [µM],TGI (MDA-N) [µM],TGI (T-47D breast) [µM]
Cc1c(C(=O)Nc2ccc(Cl)c(C(F)(F)F)c2)oc2cc(O)ccc2/c1=N\NC(N)=S,> 100,> 100,> 100,> 100,> 100,> 100,> 100,> 100,> 100,> 100,> 100,> 100,> 100,,,,
Cc1nc(Nc2ccccc2)sc1C(=O)NNC(N)=O,> 100,> 100,> 100,> 100,> 100,> 100,> 100,> 100,71.6,> 100,> 100,> 100,,,,,
O=C(O/N=C1/CCC/C1=C\c1ccccc1)c1ccccc1,,> 100,> 100,> 100,> 100,> 100,> 100,89.9,> 100,,> 100,> 100,> 100,,,,
Cc1ccc(C2=NN(C)COC2C(F)(F)F)cc1 (centres undefined),,> 100,> 100,> 100,> 100,> 100,> 100,> 100,> 100,> 100,> 100,> 100,> 100,,,,
CCCOc1ccc(/C=C/C2=[N+](CCO)CCO2)cc1,,,> 100,,,,,,> 100,,,> 100,> 100,> 100,> 100,> 100,> 100
COc1c(C(CC(C)C)OC(C)=O)ccc2c1C(=O)OCc1cc(C)cc(O)c1O2 (centres undefined),,,27.9,,,,,,21.6,,,32.8,23.5,25.6,30,29.9,23.6
O=C(O)c1ccccc1C(=O)OCC1CCCN2CCCCC12 (centres undefined),,,> 100,,,,,,> 100,,,> 100,> 100,> 100,> 100,> 100,> 100
OC1OC(c2ccc[nH]2)C(F)(F)C(F)(F)C1(F)F (centres undefined),,,> 100,,,,,,> 100,,,> 100,> 100,> 100,> 100,> 100,> 100
Cc1ccc(-c2cnc(NC3OC(COC(=O)c4ccccc4)C(OC(=O)c4ccccc4)C(OC(=O)c4ccccc4)C3OC(=O)c3ccccc3)s2)cc1 (centres undefined),,,> 100,,,,,,> 100,,,> 100,> 100,> 100,> 100,> 100,> 100
CC(=O)NNc1nc(C)c(C(/C=C/c2ccccc2O)=N/NC(=O)c2ccncc2)s1,,,> 100,,,,,,> 100,,,> 100,> 100,> 100,> 100,> 100,> 100
Cc1ccc(S(=O)(=O)Oc2coc(CO)cc2=O)cc1,,,44.8,,,,,,43.4,,,34,> 49.5,22.1,39.2,25.8,30
